Entries after “also recorded” stand apart in the source; their conditions may differ.
Key:
[1] = tested on: polyclonal GEF16 transfected NIH3T3 cells; test: Transformed colony forming assay (Toluidine blue)
Protocol: Following this incubation period the compound was then removed from the culture media and cells maintained in normal growth media for a further 10 days before the photographs shown were taken.
In FIG. 4A polyclonal GEF16 transfected cells were seeded at 2.0×10^5 cells per 30 mm dish and incubated over night. […] After a further 10 days culture in the absence of inhibitors the cells were stained with Toluidine blue and photographed to produce the images shown. […] These were incubated for 3 or 6 days then stained with Toluidine blue before being photographed.
Medium (containing the compound of interest—either Y27632 or the selected compounds of the invention—or DMSO control) was changed every 2 days. Formation of foci was analysed by Toluidine blue (Sigma-Aldrich, Poole, UK) staining after 10 days growth post confluence. […] Each assay was carried out in triplicate and the results shown are representative of at least three separate experiments.

p38 alpha (MAPK14) = p38 alpha (MAPK14) (Homo sapiens, UniProt Q16539); test: SelectScreen in vitro kinase profiling, single point; details: additional single point analysis, 10 μM
ROCK2 = ROCK2 (Homo sapiens, UniProt O75116); test: SelectScreen additional single point analysis; details: 10 μM
HGK (MAP4K4) = HGK (MAP4K4) (Homo sapiens, UniProt O95819); test: SelectScreen in vitro kinase profiling, single point; details: additional single point analysis, 10 μM
Aurora A = target: T1, Aurora A (Homo sapiens, UniProt O14965); test: as above; details: additional single point analysis, 10 μM
T1 sequence (O14965 1-403): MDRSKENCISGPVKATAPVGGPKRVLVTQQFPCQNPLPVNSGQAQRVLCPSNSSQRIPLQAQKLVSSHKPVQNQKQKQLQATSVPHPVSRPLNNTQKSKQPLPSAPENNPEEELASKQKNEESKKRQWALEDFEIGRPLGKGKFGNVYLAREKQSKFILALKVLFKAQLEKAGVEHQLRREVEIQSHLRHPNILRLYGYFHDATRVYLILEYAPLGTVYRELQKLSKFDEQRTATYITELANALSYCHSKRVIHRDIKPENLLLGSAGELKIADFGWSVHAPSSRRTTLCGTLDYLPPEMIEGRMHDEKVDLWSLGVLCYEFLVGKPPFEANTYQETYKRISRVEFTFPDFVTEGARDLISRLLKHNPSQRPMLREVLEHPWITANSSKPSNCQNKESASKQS

recombinant ROCK = test: In vitro ROCK activity assay (Cyclex Rho-kinase immunoassay); type: biochemical; details: FIG. 2A bar chart
Protocol: A specific assay was used to evaluate the ability of the compounds of the invention to inhibit ROCK. Rho-kinase activity was determined using an immunoassay as recommended by the manufacturer (Cyclex Co., Ltd., Nagano, Japan). Briefly, […] samples containing 10 mUnit (1 Unit incorporates 1 nmol of phosphate into GST-MBS/MYPT1 per minute at 30° C.) of recombinant ROCK with or without the compounds of the invention were aliquoted into a 96-well plate (100 μl/well), pre-coated with threonine Rho-kinase phosphorylation substrate. After 30 min incubation at 30° C., the plate was washed three times with PBS then incubated with 100 μl/well of HRP conjugated anti-phospho-specific antibody for 1 h at room temperature. The amount of phosphorylated substrate was determined by adding 100 μl/well of substrate reagent for 10 min and the reaction was terminated by adding 100 μl/well of the stop solution. The absorbance was measured on a 96-well plate reader at 450 nm (Dynex Technologies, West Sussex, UK). Each data point was performed in triplicate and the assay was repeated twice.

ROCK1 = ROCK1 (Homo sapiens, UniProt Q13464); test: SelectScreen additional single point analysis; details: 10 μM
[2] = tested on: single transformed colony derived GEF16 NIH3T3 cells; test: Growth of cell populations derived from single GEF16 transformed colonies; type: cell-based, mouse; details: FIG. 5A
Protocol: FIG. 5 illustrates that the growth suppressive effects of YA1 on single transformed colony derived GEF16 NIH3T3 cells and polyclonal Ras transformed NIH3T3 cells are more pronounced when these are co-cultured with non-transformed cells. In FIG. 5A single transformed colonies were picked from 10 day cultures of GEF16 polyclonal NIH3T3 cells and expanded. These cells were then seeded at 2.0×10^5 cells per 30 mm dish and treated with 10 μM of YA1 or DMSO control either immediately or following 10 days in culture. Duplicate wells were harvested for flow cytometry. In FIG. 5B a total of 2×10^5 cells per well were plated consisting of increasing numbers of non-transformed vector cells co-cultured with decreasing numbers of single transformed colony derived GEF16 cells. These were treated with 10 μM of either YA1 or DMSO for 10 days. In producing the results shown in FIG. 5C the same co-culture experiment described in connection with FIG. 5B was carried out substituting polyclonal Ras transformed NIH3T3 cells for GEF16 transformed cells.
Single transformed colonies were picked from GEF16 polyclonal NIH3T3 cells and expanded according to the methods described above. Expanded cell populations were plated and a compound of the invention (YA1) added either immediately or after 10 days when the cells were post-confluent.

[3] = tested on: GEF16 transfected NIH3T3 cells; test: Cell proliferation assay (Celltiter Aq96); type: cell-based, mouse; details: 10 μM, Cell AQ96 absorbance at 6, 8 and 10 days
Protocol: FIG. 1D is a bar chart showing the results of Cell AQ^96 assessment of the growth of GEF16 and vector transfected cells seeded in a 96 well plate at 1×10^3 cells per well. These were incubated for 3 days followed by addition of reagent to determine the starting point for the assay. 10 μM of either Y27632 or DMSO were then added to wells containing both cell types and Cell AQ^96 absorbance measured at 6, 8 and 10 days. At day 3 cells were 100% confluent which was determined by phase contrast visual inspection of the cultures at ×20 magnification;
Cell proliferation was investigated using Celltiter Aq^96 reagent (Promega, Southampton, UK) according to the manufacturer's protocol. Cells were seeded into a 96-well plate at a density of 1×10^3 cells/well allowing 3 wells per data point and allowed to attach for a set period. Following this, the initial starting point 490 nm absorbance was determined by adding 20 μl of Aq^96 reagent to each well and incubating for 4 h at 37° C. in 5% CO2 (96-well plate reader, Dynex Technologies, West Sussex, UK). The various compounds (Y27632 or compounds of the invention) or DMSO control were then added to duplicate wells and the absorbance determined in the same way at the time points indicated. Each data set shown is representative of three separate experiments.

PKC epsilon = target: T2, PKC epsilon (Homo sapiens, UniProt Q02156); details: 10 μM; cited from earlier work
T2 sequence (Q02156 1-737): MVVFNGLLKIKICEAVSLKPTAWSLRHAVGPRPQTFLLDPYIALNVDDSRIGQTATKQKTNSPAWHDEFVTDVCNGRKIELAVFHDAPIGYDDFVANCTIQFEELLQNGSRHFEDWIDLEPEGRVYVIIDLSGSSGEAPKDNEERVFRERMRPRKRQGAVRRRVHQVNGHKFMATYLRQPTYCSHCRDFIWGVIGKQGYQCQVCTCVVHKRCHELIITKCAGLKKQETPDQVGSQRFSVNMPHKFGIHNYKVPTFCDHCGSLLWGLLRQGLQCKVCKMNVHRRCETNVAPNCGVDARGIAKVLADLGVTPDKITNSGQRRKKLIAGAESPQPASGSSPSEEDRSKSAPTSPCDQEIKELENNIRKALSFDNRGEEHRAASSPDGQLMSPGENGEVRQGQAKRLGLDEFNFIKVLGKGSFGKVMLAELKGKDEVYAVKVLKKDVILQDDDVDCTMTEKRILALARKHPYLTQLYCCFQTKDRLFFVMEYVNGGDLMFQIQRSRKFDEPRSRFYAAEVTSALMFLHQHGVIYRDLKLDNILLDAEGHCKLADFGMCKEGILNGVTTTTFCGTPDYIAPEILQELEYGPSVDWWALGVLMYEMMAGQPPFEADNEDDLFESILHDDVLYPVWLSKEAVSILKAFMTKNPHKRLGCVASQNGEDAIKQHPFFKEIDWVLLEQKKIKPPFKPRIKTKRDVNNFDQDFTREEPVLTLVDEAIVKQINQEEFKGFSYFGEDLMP

ROCK2, sequence (O75116 whole entry): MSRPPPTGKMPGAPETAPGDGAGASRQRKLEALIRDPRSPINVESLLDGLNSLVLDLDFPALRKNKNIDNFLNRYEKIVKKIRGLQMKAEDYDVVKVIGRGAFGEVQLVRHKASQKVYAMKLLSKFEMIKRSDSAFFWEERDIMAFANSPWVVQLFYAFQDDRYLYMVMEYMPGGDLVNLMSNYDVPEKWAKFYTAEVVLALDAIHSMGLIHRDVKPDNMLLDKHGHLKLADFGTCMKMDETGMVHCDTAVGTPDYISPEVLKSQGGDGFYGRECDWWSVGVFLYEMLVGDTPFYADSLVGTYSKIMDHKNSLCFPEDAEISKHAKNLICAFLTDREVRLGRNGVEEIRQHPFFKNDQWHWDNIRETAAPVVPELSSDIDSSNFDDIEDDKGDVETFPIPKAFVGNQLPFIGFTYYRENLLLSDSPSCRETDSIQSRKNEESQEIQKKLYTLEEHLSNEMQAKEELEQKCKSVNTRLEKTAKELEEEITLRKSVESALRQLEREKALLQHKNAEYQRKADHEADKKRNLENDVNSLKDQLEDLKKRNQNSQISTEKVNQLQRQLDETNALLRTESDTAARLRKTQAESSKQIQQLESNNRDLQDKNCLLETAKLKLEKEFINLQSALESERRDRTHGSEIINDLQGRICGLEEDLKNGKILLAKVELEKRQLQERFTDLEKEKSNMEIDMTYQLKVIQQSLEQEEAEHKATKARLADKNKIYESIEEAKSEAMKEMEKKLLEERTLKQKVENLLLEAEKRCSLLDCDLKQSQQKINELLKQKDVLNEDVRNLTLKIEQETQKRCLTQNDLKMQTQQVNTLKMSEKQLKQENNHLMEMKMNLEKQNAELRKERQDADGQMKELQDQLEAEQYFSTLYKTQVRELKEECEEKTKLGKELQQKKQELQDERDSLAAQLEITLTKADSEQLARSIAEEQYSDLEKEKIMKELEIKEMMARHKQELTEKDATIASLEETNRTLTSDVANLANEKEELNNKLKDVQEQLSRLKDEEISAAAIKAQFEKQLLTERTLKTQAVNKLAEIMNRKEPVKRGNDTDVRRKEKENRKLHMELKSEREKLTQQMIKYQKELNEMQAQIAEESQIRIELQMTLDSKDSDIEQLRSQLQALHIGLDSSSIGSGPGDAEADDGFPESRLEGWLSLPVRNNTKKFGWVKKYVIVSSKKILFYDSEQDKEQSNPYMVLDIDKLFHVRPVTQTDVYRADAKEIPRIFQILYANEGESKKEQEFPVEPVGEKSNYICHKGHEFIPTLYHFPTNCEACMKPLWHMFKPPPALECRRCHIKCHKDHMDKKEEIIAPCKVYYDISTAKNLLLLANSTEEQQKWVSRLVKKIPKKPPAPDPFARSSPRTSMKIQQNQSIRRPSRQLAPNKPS
ROCK1, sequence (Q13464 whole entry): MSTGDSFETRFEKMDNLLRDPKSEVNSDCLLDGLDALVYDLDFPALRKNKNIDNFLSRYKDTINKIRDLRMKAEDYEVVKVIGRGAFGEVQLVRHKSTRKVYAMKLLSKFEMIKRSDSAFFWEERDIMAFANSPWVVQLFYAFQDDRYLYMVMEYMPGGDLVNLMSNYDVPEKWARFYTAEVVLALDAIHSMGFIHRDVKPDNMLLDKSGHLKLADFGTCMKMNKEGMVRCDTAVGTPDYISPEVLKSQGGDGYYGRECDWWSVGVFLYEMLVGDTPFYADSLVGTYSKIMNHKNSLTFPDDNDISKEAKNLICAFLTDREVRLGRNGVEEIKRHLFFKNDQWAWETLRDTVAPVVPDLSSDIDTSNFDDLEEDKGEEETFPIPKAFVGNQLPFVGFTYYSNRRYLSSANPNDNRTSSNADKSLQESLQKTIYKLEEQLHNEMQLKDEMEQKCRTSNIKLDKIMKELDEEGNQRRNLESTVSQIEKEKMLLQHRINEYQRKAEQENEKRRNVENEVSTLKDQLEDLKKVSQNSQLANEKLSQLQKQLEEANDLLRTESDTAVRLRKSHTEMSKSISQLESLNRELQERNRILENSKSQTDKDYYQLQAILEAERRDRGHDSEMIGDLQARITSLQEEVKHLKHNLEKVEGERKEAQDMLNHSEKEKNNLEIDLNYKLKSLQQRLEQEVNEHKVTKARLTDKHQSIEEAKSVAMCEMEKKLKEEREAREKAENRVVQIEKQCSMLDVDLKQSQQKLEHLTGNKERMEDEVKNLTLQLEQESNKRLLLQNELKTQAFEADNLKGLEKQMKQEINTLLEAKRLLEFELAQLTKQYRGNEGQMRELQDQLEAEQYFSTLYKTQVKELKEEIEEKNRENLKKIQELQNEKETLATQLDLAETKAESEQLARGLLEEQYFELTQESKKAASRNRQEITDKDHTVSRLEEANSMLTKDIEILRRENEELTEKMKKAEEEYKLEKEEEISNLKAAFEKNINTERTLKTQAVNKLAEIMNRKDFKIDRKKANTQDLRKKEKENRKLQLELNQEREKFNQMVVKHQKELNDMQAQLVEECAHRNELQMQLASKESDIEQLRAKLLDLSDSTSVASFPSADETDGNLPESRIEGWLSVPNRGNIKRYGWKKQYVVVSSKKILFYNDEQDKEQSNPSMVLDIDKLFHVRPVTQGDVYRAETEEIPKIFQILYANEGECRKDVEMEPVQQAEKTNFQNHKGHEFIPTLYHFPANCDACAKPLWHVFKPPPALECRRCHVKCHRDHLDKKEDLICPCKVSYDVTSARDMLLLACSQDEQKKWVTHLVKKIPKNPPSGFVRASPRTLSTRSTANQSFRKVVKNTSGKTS
p38 alpha (MAPK14), sequence (Q16539 whole entry): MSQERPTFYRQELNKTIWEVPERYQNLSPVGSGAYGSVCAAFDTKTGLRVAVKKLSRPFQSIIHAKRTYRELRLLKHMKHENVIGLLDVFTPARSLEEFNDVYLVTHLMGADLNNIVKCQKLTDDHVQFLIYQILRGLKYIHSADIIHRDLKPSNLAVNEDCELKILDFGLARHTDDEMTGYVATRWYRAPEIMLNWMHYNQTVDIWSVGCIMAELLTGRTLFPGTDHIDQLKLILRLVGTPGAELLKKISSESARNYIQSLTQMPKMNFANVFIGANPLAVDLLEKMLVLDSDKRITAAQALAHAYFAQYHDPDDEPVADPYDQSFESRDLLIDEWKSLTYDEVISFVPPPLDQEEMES
HGK (MAP4K4), sequence (O95819 whole entry): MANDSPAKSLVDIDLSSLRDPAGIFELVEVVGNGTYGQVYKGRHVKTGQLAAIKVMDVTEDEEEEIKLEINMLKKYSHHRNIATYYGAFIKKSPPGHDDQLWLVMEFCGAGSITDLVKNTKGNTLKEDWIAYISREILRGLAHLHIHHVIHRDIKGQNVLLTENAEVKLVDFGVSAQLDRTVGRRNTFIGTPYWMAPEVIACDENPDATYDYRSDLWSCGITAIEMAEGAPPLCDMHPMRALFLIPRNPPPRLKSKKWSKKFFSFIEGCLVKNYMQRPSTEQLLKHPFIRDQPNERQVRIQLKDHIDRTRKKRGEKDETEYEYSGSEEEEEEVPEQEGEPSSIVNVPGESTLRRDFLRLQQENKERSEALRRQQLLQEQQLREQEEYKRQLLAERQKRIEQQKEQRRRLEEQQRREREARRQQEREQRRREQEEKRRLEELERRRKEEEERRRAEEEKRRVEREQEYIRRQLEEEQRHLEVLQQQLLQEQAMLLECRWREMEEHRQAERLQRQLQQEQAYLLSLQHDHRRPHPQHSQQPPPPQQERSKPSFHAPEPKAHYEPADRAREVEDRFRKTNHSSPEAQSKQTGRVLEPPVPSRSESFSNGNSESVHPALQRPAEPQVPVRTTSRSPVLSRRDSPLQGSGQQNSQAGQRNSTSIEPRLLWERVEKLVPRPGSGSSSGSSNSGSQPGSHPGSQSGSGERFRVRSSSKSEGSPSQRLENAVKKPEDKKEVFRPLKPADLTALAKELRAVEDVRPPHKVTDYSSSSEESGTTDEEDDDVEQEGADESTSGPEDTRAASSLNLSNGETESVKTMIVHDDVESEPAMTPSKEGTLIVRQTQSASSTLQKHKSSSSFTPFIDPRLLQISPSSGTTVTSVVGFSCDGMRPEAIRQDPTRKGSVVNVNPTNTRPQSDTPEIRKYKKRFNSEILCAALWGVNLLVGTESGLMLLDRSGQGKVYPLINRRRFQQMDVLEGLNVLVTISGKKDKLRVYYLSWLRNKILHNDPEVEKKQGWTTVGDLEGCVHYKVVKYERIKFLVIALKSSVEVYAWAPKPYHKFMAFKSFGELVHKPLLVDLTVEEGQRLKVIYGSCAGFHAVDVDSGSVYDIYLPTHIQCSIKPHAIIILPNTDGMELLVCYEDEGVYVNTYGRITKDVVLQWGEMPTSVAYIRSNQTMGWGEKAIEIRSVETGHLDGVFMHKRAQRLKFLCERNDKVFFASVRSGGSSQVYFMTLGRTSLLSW

Question: For `C[S+]([O-])c1ccc(-c2nc(-c3ccncc3)c(-c3ccc(F)cc3)[nH]2)cc1` (stereo not shown) [SB203580, reference compound], which “activity against GEF16 transformed colonies” value ([1]; further studies by the inventors) is on record?
Answer: some activity against GEF16 transformed colonies although this was much less than the compound of the invention YA1

Question: Which results are given for `CN(C(=O)c1ccc(CNC(=O)OC(C)(C)C)cc1)c1ccncc1` [YA4, 4-(N-Methyl-N-pyridin-4-ylcarbamoyl)benzylcarbamic acid tert-butyl ester]?
Answer: activity against p38 (p38 alpha (MAPK14)): significant activity against p38, HGK and Aurora A; activity against ROCK2 (ROCK2): less activity against ROCKs than YA2; activity against HGK (HGK (MAP4K4)): significant activity against p38, HGK and Aurora A; activity against Aurora A (Aurora A): significant activity against p38, HGK and Aurora A; ROCK inhibitory activity compared to Y27632 (recombinant ROCK): lower ROCK inhibitory activity; also recorded: significantly less activity against ROCK than did their structural analogue Y27632; activity against ROCK1 (ROCK1): less activity against ROCKs than YA2

Question: With `C[C@@H](N)[C@H]1CC[C@H](C(=O)Nc2ccncc2)CC1` [Compound Y27632, reference compound] as the compound, how does the “effect on single colony derived GEF16 transformed cells grown in the absence of non-transformed cells” value [2] read?
Answer: little or no effect

Question: And the “growth of confluent GEF16 transformed cells” value [3]?
Answer: inhibits the growth of confluent GEF16 transformed cells

Question: And the “transformed focus formation after treatment, re-seeding and chase” value ([1]; 10 μM for 2-10 days, re-seeded at 2×10^5, 10 day chase without inhibitor)?
Answer: able to suppress transformed focus formation

Question: And the “formation of GEF16 transformed colonies” value ([1]; 10 μM, 10 days, post confluent cultures)?
Answer: suppresses the formation of GEF16 transformed NIH3T3 cell colonies

Question: And the “effect on pre-formed transformed colonies” value ([1]; colonies formed for 10 days, then 10 μM or 20 μM for 3 and 6 days)?
Answer: very little effect on pre-formed transformed colonies; also recorded: Neither Y27632 nor the other compounds of the invention tested (data not shown) exhibited this property

Question: What about the “inhibition of PKC epsilon” value (PKC epsilon) of the same compound?
Answer: 94%

Reference: patent US20130046098A1, “KINASE INHIBITORS” (THE UNIVERSITY OF MANCHESTER, priority 2009, published 2013)
